Results from patent US20080300263A1, “Pyrazolo [1,5-a] pyrimidine compounds and pharmaceutical compositions containing them” (EiRx Therapeutics plc, priority 2005, published 2008).
Where two headings read alike, the source gives them in different places.

How the values were obtained:
C9M-TF1 cells [1] = assay: Primary high-throughput screen, Alamar Blue, suspension cells; format: cell-based; conditions: Homo sapiens, 72 h, compound at 10 μM, read-out: percentage kill, C9M
Experimental: (§1) Daughter Plates containing 10 μl of a […] solution of test compound selected from among the candidate compounds stored at […] are thawed at room temperature. A 10 μL volume of 0.1% DMSO in PBS is added to all wells of Column 12 and the wells in Row A-F of Column 1. A 10 μl volume of a pre-determined concentration of the P13-Kinase inhibitor LY294002 is added to wells in Row G and H of Column 1. A 90 μl volume of the appropriate cell culture medium is then added to each well and mixed by repeated aspiration/dispensing. The compounds are at a final test concentration of 10 μM.
(§2) Once the Daughter Plates have been prepared the media is removed from all wells of the cell culture plate using an 8-Channel Vacuum Aspirator. The contents of the Daughter Plates are then transferred to the appropriate wells of their relevant Test Plates and the Test Plates are incubated for 72 h at 37° C. and 5% CO2. At the end of this period Test Plates are assayed by Alamar Blue. A 10 μl volume of Alamar Blue is added to all wells of the Test Plate. The Test Plates are incubated for […] at 37° C. and 5% CO2 and finally read using the BioTek SYNERGY plate reader (Excitation 530125 nm-Emission 590135 nm). Percentage inhibition is determined using Microsoft Excel spreadsheet calculations.
(§3) Suspension cells are split 24 hours prior to drug treatment in order to bring the cultures into the log phase of growth. On the day of the assay the cells are plated directly into the Daughter Plates at the appropriate pre-determined seeding density (Table 1) in 90 μl volumes, the concentration of the test compounds thus being reduced to 10 μM. Cells are plated in all wells apart from those in Column 12 which contain 901 normal culture medium alone. The plates are incubated for 72 h at 37° C. and 5% CO2 after which time they are assayed by Alamar Blue as per the preceding example.
(§4) The figures appearing in the columns are the percentage kill achieved by that compound at 10 μM.

[2] = system: FRAT2 overexpresing TF1 (FRAT2-C9M-TF1 cells); assay: as above; format: cell-based; conditions: Homo sapiens, compound at 10 μM, 72 h
Experimental: as §1, §2, §3, §4

[3] = system: A549 Non Small Cell Lung Carcinoma; assay: Primary high-throughput screen, Alamar Blue, adherent cells; format: cell-based; conditions: Homo sapiens, compound at 10 μM, 72 h, read-out: percentage kill, A549
Experimental: (§5) Adherent cells are plated at a pre-determined seeding density (Table 1) in flat-bottom 96 well plates 24 hours prior to drug treatment. The cell lines are plated in 100 μl volumes in each well. Cells are plated in all wells apart from those in Column 12 which contain 100 μL normal culture medium alone. These plates will be known as the Test Plates. The Test Plates are labelled with a Daughter Plate ID.
as §1, §2, §4

[4] = system: CACO2 Colon adenocarcinoma; assay: as above; format: cell-based; conditions: Homo sapiens, Caco-2; compound at 10 μM, 72 h; read-out: percentage kill, CAC02
Experimental: as §5, §1, §2, §4

[5] = system: HT29 Colorectal adenocarcinoma; assay: as above; format: cell-based; conditions: Homo sapiens, HT-29; compound at 10 μM, 72 h; read-out: percentage kill, HT29
Experimental: as §5, §1, §2, §4

[6] = system: LS123 Colon adenocarcinoma (Dukes' type B); assay: as above; format: cell-based; conditions: Homo sapiens, LS-123; compound at 10 μM, 72 h; read-out: percentage kill, LS123
Experimental: as §5, §1, §2, §4

[7] = system: MCF7 Mammary gland adenocarcinoma; assay: as above; format: cell-based; conditions: Homo sapiens, compound at 10 μM, 72 h, read-out: percentage kill, MCF7
Experimental: as §5, §1, §2, §4

[8] = system: NCI ADR RES Breast adenocarcinoma (pleural effusion); assay: as above; format: cell-based; conditions: Homo sapiens, compound at 10 μM, 72 h, read-out: percentage kill, NCI ADR RES
Experimental: as §5, §1, §2, §4

[9] = system: PC3 Prostate carcinoma (bone metastasis); assay: as above; format: cell-based; conditions: compound at 10 μM, 72 h; read-out: percentage kill, PC3
Experimental: as §5, §1, §2, §4

[10] = system: SW480 Colon adenocarcinoma (Dukes' type B); assay: as above; format: cell-based; conditions: Homo sapiens, compound at 10 μM, 72 h, read-out: percentage kill, SW480
Experimental: as §5, §1, §2, §4

[11] = system: U1810 Non Small Cell Lung Carcinoma; assay: as above; format: cell-based; conditions: U-1810; compound at 10 μM, 72 h; read-out: percentage kill, U1810
Experimental: as §5, §1, §2, §4

C9M-TF1 cells [12] = assay: EC50 titration, Alamar Blue, suspension cells; format: cell-based; conditions: Homo sapiens, 72 h
Experimental: (§6) On the day of the assay compounds are used to prepare dilution series on Titration Plates which are plated at ten times their final screening concentration in 10 μl aliquots.
(§7) Suspension cells are split 24 hours prior to drug treatment in order to bring the cultures into the log phase of growth. On the day of the assay the cells are plated directly into the Titration Plates at the appropriate pre-determined seeding density (Table 1) in 90 μl volumes thus reducing the concentration of the compounds to their final test concentration. The plates are incubated for 72 hours at 37° C. and 5% CO2 after which time they are assayed by Alamar Blue.
(§8) The EC50 values are calculated using the values obtained from the Alamar Blue readout which are converted into a “Percentage of the Untreated Control” and using Graph Pad Prism these values are plotted against the logarithm of the test concentration. Using a non-linear regression analysis a sigmoidal dose-response curve is generated from which the EC50 is determined.

FRAT2-C9M-TF1 cells = assay: EC50 titration, Alamar Blue, suspension cells; format: cell-based, Human; conditions: Homo sapiens, 72 h, Alamar Blue
Experimental: as §6, §7, §8

[13] = system: breast cancer cell line MCF7; assay: EC50 titration, Alamar Blue, adherent cells; format: cell-based; conditions: Homo sapiens, 72 h
Experimental: as §6
(§9) For adherent cell lines plated 24 hours previously, a 90 μl volume of the appropriate cell culture medium is then added to each well of the Titration Plates and mixed by repeated aspiration/dispensing, thus taking the compounds to their final test concentration. Once the Titration Plates have been prepared the media is removed from all wells of the cell culture plate and the contents of the Titration Plates are then transferred to the appropriate wells of their relevant Test Plates and incubated for 72 h at 37° C. and 5% CO2 after which time they are assayed by Alamar Blue. Using a combination of Microsoft Excel and Graph Pad Prism, EC50s are determined.
as §8

[14] = system: colon cancer cell line HT29; assay: EC50 titration, Alamar Blue, adherent cells; format: cell-based; conditions: Homo sapiens, HT-29, 72 h
Experimental: as §6, §9, §8

[15] = system: non-transformed breast cell line MCF10A; assay: EC50 titration, Alamar Blue, adherent cells; format: cell-based; conditions: Homo sapiens, MCF-10A, 72 h
Experimental: as §6, §9, §8

[16] = minus GMCSF, read-out: percentage kill, FRAT2−
[17] = plus GMCSF, read-out: percentage kill, FRAT2+

Row | Compound | inhibition at 10 µM (C9M-TF1 cells [1]; first C9M column) | inhibition at 10 µM (C9M-TF1 cells [1]; second C9M column) | inhibition at 10 µM [2, 16] | inhibition at 10 µM [2, 17] | inhibition at 10 µM [3] | inhibition at 10 µM [4] | inhibition at 10 µM [5] | inhibition at 10 µM [6] | inhibition at 10 µM [7] | inhibition at 10 µM [8] | inhibition at 10 µM [9] | inhibition at 10 µM [10] | inhibition at 10 µM [11] | EC50 (C9M-TF1 cells [12]) | EC50 (FRAT2-C9M-TF1 cells; absence of growth factor) | EC50 (FRAT2-C9M-TF1 cells; presence of growth factor) | EC50 [13] | EC50 [14] | EC50 [15]
1 | COc1cccc(-c2cnn3c(NCc4ccccn4)ccnc23)c1 [Compound 1] | -1% | 2% | 54% | 28% | 34% | 61% | 58% | 91% | 68% | 58% | -4% | 33% | 15% | 26 µM | 11.8 µM | 12.9 µM | 3.8 µM | 3.98 µM | 18.6 µM
2 | COc1ccc(-c2cnn3c(NCc4ccccn4)ccnc23)c(OC)c1 [Compound 4] | 1% | 1% | 71% | 36% | 12% | 35% | 71% | 92% | 64% | 67% | -4% | 53% | 16% | 21.4 µM | 2.75 µM | 5.62 µM | 1.78 µM | 1.58 µM | 14.5 µM
3 | c1ccc(-c2cnn3c(NCc4ccccn4)ccnc23)cc1 [Compound 5] | 1% | -11% | 61% | 42% | 10% | 78% | 75% | 87% | 87% | 63% | -92% | 62% | 24% | 16.6 µM | 3.63 µM | 5.75 µM | 1.51 µM | 1.58 µM | 12.9 µM
4 | Fc1ccccc1-c1cnn2c(NCc3ccccn3)ccnc12 [Compound 6] | -1% | -11% | 59% | 33% | 6% | 37% | 20% | 72% | 64% | 51% | -94% | 3% | 11% | 10 µM | 5.75 µM | 5.13 µM | 1.32 µM | 1.41 µM | 23.4 µM
5 | CN(C)c1cccc(-c2cnn3c(NCc4ccccn4)ccnc23)c1 [Compound 7] | 9% | 23% | 53% | 27% | 5% | 32% | 40% | 82% | 68% | 63% | -16% | 44% | 18% | 20.4 µM | 6.61 µM | 5.01 µM | 2.34 µM | 4.07 µM | 11.5 µM
